Assay results published in US8585965B2, “Sterilization of polymeric materials” (priority 2006, dated 2013).

Key:
Type in all cases: cell-based
[1] = tested on: Enterococcus faecalis ATCC 29212; test: Radiosensitization of bacteria coated onto a material surface (sterile 12 mm paper disks), gamma irradiation, cfu by dilution plating; settings: for enhancement of the killing efficiency of the irradiation / cfu recovered, 0.3 kGy: 0.3 kGy; for enhancement of the killing efficiency of the irradiation: paper disks; for Post-Treatment CFU Added: 2 hours at room temperature; for cfu recovered, 0.3 kGy / cfu recovered, 0 kGy: paper disk; for cfu recovered, 0 kGy: not irradiated
Description: Enterococcus faecalis ATCC 29212, grown overnight in tryptic soy broth at 37° C. without shaking, were centrifuged and resuspended in 2% glucose at a concentration of about 5×10^7 cfu/ml. […] The cfu contained in each sample were quantified by dilution plating and the values are listed as “post-treatment cfu added.” None of the radiosensitizer treatments alone appeared to have a significant adverse effect on the bacteria.
Following radiosensitizer treatment, 0.05 ml of each mixture (containing approximately 1×10^6 cfu) was spotted onto sterile 12 mm paper disks and the disks air dried for 30 minutes. The disks were then placed in sterile tubes and left untreated or irradiated with 0.3 kGy. The cfu were recovered from the disks by vortexing with glass beads for 1 minute in 0.85% saline with 0.35 g/l lecithin and 2.5 ml/l Tween 80. Quantification of the cfu was then performed by dilution plating onto tryptic soy agar.

[2] = tested on: Enterococcus faecalis ATCC 29212; test: Radiosensitization of bacteria coated onto Vicryl mesh (Example 3); settings: for Avg CFU Recovered / Log Red v 0 kGy / Log Red v Control / Log Red v Inoculum: 50 μg/ml, Vicryl
Description: (§1) Enterococcus faecalis ATCC 29212, grown overnight in tryptic soy broth at 37° C. without shaking, were centrifuged and resuspended in phosphate buffered saline (PBS) at a concentration of about 5×10^8 cfu/ml. […] The cfu contained in each sample after this incubation were quantified by dilution plating.
(§2) Following radiosensitizer treatment, 0.01 ml of each mixture (containing approximately 5×10^8 cfu) was spotted onto nine 1 cm×1 cm squares of Vicryl® mesh that were then air dried for 60 minutes. Triplicate samples were then placed in sterile tubes and left untreated or irradiated with 0.1 or 0.3 kGy. The cfu were recovered from the mesh by vortexing with glass beads for 1 minute in 0.85% saline with 0.35 g/l lecithin and 2.5 ml/l Tween 80. Quantification of the cfu was then performed by dilution plating onto tryptic soy agar.

[3] = tested on: Enterococcus faecalis ATCC 29212; test: Radiosensitization of bacteria coated onto Prolene mesh (Example 3)
Description: as §1
as §2, with “Prolene®” for “Vicryl®”

[4] = tested on: Enterococcus faecalis ATCC 29212; test: Radiosensitization of bacteria coated onto Vicryl mesh (Example 2), irradiation 0.1 or 0.2 kGy; set-up: Inoculum: dose or concentration left out as unconfirmed
Description: as §1, with “roughly 2×10^9” for “about 5×10^8”
as §2, with “approximately 2×10^7” for “approximately 5×10^8”, “or 0.2” for “or 0.3”, “the meshes” for “the mesh”

[5] = tested on: Enterococcus faecalis ATCC 29212; test: Radiosensitization of bacteria coated onto Spongostan gelatin sponge (Example 4); settings: 50 μg/ml methylene blue
Description: as §1
as §2, with “Spongostan® gelatin sponge” for “Vicryl® mesh”, “minutes. (Spongostan® is a dry artificial sponge of fibrin prepared by clotting with thrombin, a foam or solution of fibrinogen. It is used in conjunction with thrombin as a hemostatic in surgery at sites where bleeding cannot be controlled by more common methods.)” for “minutes.”, “sponge” for “mesh”

[6] = 50 μg/ml methylene blue, 2 hours, no irradiation
[7] = 50 μg/ml, 0.3 kGy, Prolene, triplicate samples

O=C1O[C@H]([C@@H](O)CO)C(O)=C1O [Ascorbic Acid, ascorbic acid]
enhancement of the killing efficiency of the irradiation [1]: greatest effect | Percent Survival 0.3 vs. 0 kGy ([1]; Conc. 200 μg/ml): 0.28% | Post-Treatment CFU Added ([1]; Conc. 200 μg/ml): 8.55E+05 CFU | cfu recovered, 0.3 kGy ([1]; Conc. 200 μg/ml): 9 cfu | cfu recovered, 0 kGy ([1]; Conc. 200 μg/ml): 3270 cfu

CN(C)c1ccc2nc3ccc(=[N+](C)C)cc-3sc2c1 [Methylene Blue, methylene blue]
Inoculum ([2]; 50 μg/ml methylene blue, spotted onto Vicryl mesh): 4.20E+06 CFU | Avg CFU Recovered ([2]; 0.0 kGy): 1.79E+04 CFU | Log Red v 0 kGy ([2]; 0.0 kGy): 0.0 Log | Log Red v Control ([2]; 0.0 kGy): −1.2 Log | Log Red v Inoculum ([2]; 0.0 kGy): −2.4 Log | Avg CFU Recovered ([2]; 0.3 kGy): 9.83E+01 CFU | Log Red v 0 kGy ([2]; 0.3 kGy): −2.3 Log | Log Red v Control ([2]; 0.3 kGy): −0.8 Log | Log Red v Inoculum ([2]; 0.3 kGy): −4.6 Log | number of bacteria recovered, combination with irradiation compared to methylene blue or irradiation alone ([2]; Vicryl mesh): significantly reduced the number of bacteria recovered | cfu contained in sample after incubation ([3]; 50 μg/ml methylene blue, 2 hours at room temperature, PBS, suspension used for Prolene and Vicryl meshes, untreated 4.8×10^8): 4.2×10^8 cfu/ml | effect of incubation on the bacterial number [3, 6]: did not significantly affect the bacterial number | Inoculum ([3]; 50 μg/ml methylene blue, spotted onto Prolene mesh): 4.20E+06 CFU | Avg CFU Recovered ([3]; 50 μg/ml, 0.0 kGy, Prolene): 2.38E+03 CFU | Log Red v 0 kGy ([3]; 50 μg/ml, 0.0 kGy, Prolene): 0.0 Log | Log Red v Control ([3]; 50 μg/ml, 0.0 kGy, Prolene): −1.5 Log | Log Red v Inoculum ([3]; 50 μg/ml, 0.0 kGy, Prolene): −3.2 Log | Avg CFU Recovered ([3]; 50 μg/ml, 0.3 kGy, Prolene): 0.00E+00 CFU | Log Red v 0 kGy ([3]; 50 μg/ml, 0.3 kGy, Prolene): −3.4 Log | Log Red v Control ([3]; 50 μg/ml, 0.3 kGy, Prolene): −1.2 Log | Log Red v Inoculum ([3]; 50 μg/ml, 0.3 kGy, Prolene): −6.6 Log | Plated CFU [3, 7]: 0.00E+00 CFU | Total CFU Recovered [3, 7]: 0.00E+00 CFU | number of bacteria recovered, combination with irradiation compared to methylene blue or irradiation alone ([3]; Prolene mesh): significantly reduced the number of bacteria recovered | Avg CFU Rec ([4]; 0 kGy, Vicryl mesh): 7.40E+05 CFU | Avg Log CFU ([4]; 0 kGy, Vicryl mesh): 5.72 Log CFU | cfu contained in sample after incubation ([4]; 50 μg/ml methylene blue, 2 hours at room temperature, PBS, untreated 1.8×10^9): 1.6×10^9 cfu/ml | effect of incubation on the bacterial number [4, 6]: did not significantly affect the bacterial number | Avg Log CFU ([4]; 0.1 kGy, Vicryl mesh): 3.90 Log CFU | Avg CFU Rec ([4]; 0.2 kGy, Vicryl mesh): 1.83E+03 CFU | Avg Log CFU ([4]; 0.2 kGy, Vicryl mesh): 3.08 Log CFU | effect on bacterial recovery ([4]; methylene blue, Vicryl mesh): small effect on bacterial recovery | recovery from unirradiated sample ([4]; methylene blue-treated, 0 kGy, Vicryl mesh, control 15%): 4.6% | Inoculum ([4]; spotted onto Vicryl mesh): 1.60E+07 CFU | cfu contained in sample after incubation ([5]; 2 hours at room temperature, PBS, untreated 4.8×10^8): 4.2×10^8 cfu/ml | effect of incubation on the bacterial number ([5]; 2 hours, no irradiation): did not significantly affect the bacterial number | Percent Survival 0.3 vs. 0 kGy ([1]; Conc. 20 μg/ml): 0.13% | Post-Treatment CFU Added ([1]; Conc. 20 μg/ml): 7.80E+05 CFU | cfu recovered, 0.3 kGy ([1]; Conc. 20 μg/ml): 3 cfu | cfu recovered, 0 kGy ([1]; Conc. 20 μg/ml): 2250 cfu

Cc1cc2nc3c(=O)[nH]c(=O)nc-3n(C[C@H](O)[C@H](O)[C@H](O)CO)c2cc1C [Riboflavin, riboflavin]
Percent Survival 0.3 vs. 0 kGy ([1]; Conc. 200 μg/ml): 0.28% | Post-Treatment CFU Added ([1]; Conc. 200 μg/ml): 8.50E+05 CFU | cfu recovered, 0.3 kGy ([1]; Conc. 200 μg/ml): 3 cfu | cfu recovered, 0 kGy ([1]; Conc. 200 μg/ml): 1080 cfu | Percent Survival 0.3 vs. 0 kGy ([1]; Conc. 1000 μg/ml): 0.83% | Post-Treatment CFU Added ([1]; Conc. 1000 μg/ml): 8.00E+05 CFU | cfu recovered, 0.3 kGy ([1]; Conc. 1000 μg/ml): 9 cfu | cfu recovered, 0 kGy ([1]; Conc. 1000 μg/ml): 1080 cfu

O=[N+]([O-])[O-].[Na+] [Sodium Nitrate, sodium nitrate]
enhancement of the killing efficiency of the irradiation [1]: greatest effect | Percent Survival 0.3 vs. 0 kGy ([1]; Conc. 5000 μg/ml): 0.00% | Post-Treatment CFU Added ([1]; Conc. 5000 μg/ml): 8.15E+05 CFU | cfu recovered, 0.3 kGy ([1]; Conc. 5000 μg/ml): 0 cfu | cfu recovered, 0 kGy ([1]; Conc. 5000 μg/ml): 420 cfu

Cc1cc2nc3ccc(N(C)C)cc3[s+]c2cc1N.[Cl-] [Toluidine Blue, toluidine blue]
enhancement of the killing efficiency of the irradiation [1]: greatest effect | Percent Survival 0.3 vs. 0 kGy ([1]; Conc. 20 μg/ml): 0.00% | Post-Treatment CFU Added ([1]; Conc. 20 μg/ml): 7.70E+05 CFU | cfu recovered, 0.3 kGy ([1]; Conc. 20 μg/ml): 0 cfu | cfu recovered, 0 kGy ([1]; Conc. 20 μg/ml): 87 cfu | Percent Survival 0.3 vs. 0 kGy ([1]; Conc. 100 μg/ml): 0.00% | Post-Treatment CFU Added ([1]; Conc. 100 μg/ml): 4.65E+05 CFU | cfu recovered, 0.3 kGy ([1]; Conc. 100 μg/ml): 0 cfu | cfu recovered, 0 kGy ([1]; Conc. 100 μg/ml): 72 cfu
